Values joined by “and” are separate entries in the source; they are usually repeats but may differ in a detail not shown here. Equal values may be shown once.
Details: for vapor or sublimation pressure: Closed cell (Static) method

FC(F)(F)/C=C/Cl [(E)-1-chloro-3,3,3-trifluoroprop-1-ene]
Details	mass density [kg/m3]	speed of sound
215.01 K, 1815.3 kPa, Liquid	1449.31	–
220 K, 1921.7 kPa, Liquid	1439.12	–
220 K, 8321.7 kPa, Liquid	1447.77	–
225 K, 8257.8 kPa, Liquid	1437.64	–
230 K, 14558 kPa, Liquid	1436.27	–
235 K, 1363.6 kPa, Liquid	1406.94	–
235 K, 5155.5 kPa, Liquid	1412.84	–
235 K, 10102 kPa, Liquid	1420.19	–
235 K, 15131 kPa, Liquid	1427.32	–
235 K, 20809 kPa, Liquid	1434.98	–
240 K, 7088 kPa, Liquid	1405.56	–
245 K, 12803 kPa, Liquid	1404.29	–
250 K, 18468 kPa, Liquid	1403.09	–
255 K, 1176.9 kPa, Liquid	1363.85	–
255 K, 5115 kPa, Liquid	1371.16	–
255 K, 10377 kPa, Liquid	1380.36	–
255 K, 15392 kPa, Liquid	1388.62	–
255 K, 21124 kPa, Liquid	1397.53	–
255 K, 24078 kPa, Liquid	1401.93	–
260 K, 6173.2 kPa, Liquid	1362.59	–
265 K, 11152 kPa, Liquid	1361.41	–
270 K, 16100 kPa, Liquid	1360.29	–
275 K, 1267.3 kPa, Liquid	1319.85	–
275 K, 4966.8 kPa, Liquid	1328.13	–
275 K, 10048 kPa, Liquid	1338.72	–
275 K, 15054 kPa, Liquid	1348.44	–
275 K, 21020 kPa, Liquid	1359.23	–
280 K, 5624.6 kPa, Liquid	1318.7	–
285 K, 9970.2 kPa, Liquid	1317.63	–
289.99 K, 80.81 kPa, Gas	–	137.76 m/s
290.01 K, 14296 kPa, Liquid	1316.62	–
290.06 K, 80.8 kPa, Gas	–	137.77 m/s
295 K, 1205.6 kPa, Liquid	1273.49	–
295 K, 5284 kPa, Liquid	1284.64	–
295 K, 10000 kPa, Liquid	1296.45	–
295 K, 14695 kPa, Liquid	1307.26	–
295 K, 18582 kPa, Liquid	1315.63	–
299.99 K, 4671.2 kPa, Liquid	1271.6	–
300 K, 4941.7 kPa, Liquid	1272.36	–
300.01 K, 79.96 kPa, Gas	–	140.51 m/s
300.01 K, 80 kPa, Gas	–	140.52 m/s
300.01 K, 113.38 kPa, Gas	–	138.9 m/s
300.02 K, 113.38 kPa, Gas	–	138.9 m/s
305 K, 8702.1 kPa, Liquid	1271.4	–
309.99 K, 12156 kPa, Liquid	1269.71	–
309.99 K, 12442 kPa, Liquid	1270.47	–
314.99 K, 8185.4 kPa, Liquid	1247.49	–
314.99 K, 16168 kPa, Liquid	1269.57	–
315 K, 1207.6 kPa, Liquid	1224.52	–
315 K, 4179.3 kPa, Liquid	1234.82	–
315 K, 11929 kPa, Liquid	1258.3	–
319.59 K, 129.53 kPa, Gas	–	143.66 m/s
319.59 K, 183.14 kPa, Gas	–	141.46 m/s
319.6 K, 129.45 kPa, Gas	–	143.67 m/s
319.6 K, 150.69 kPa, Gas	–	142.81 m/s
319.6 K, 150.7 kPa, Gas	–	142.81 m/s
319.6 K, 183.09 kPa, Gas	–	141.46 m/s
319.6 K, 183.12 kPa, Gas	–	141.46 m/s
319.61 K, 68.35 kPa, Gas	–	146.03 m/s
319.61 K, 129.45 kPa, Gas	–	143.67 m/s
319.61 K, 215.09 kPa, Gas	–	140.12 m/s
319.61 K, 215.18 kPa, Gas	–	140.11 m/s
319.61 K, 215.23 kPa, Gas	–	140.11 m/s
319.62 K, 68.35 kPa, Gas	–	146.03 m/s
319.99 K, 4450.8 kPa, Liquid	1223.61	–
319.99 K, 19560 kPa, Liquid	1267.92	–
325 K, 7686.4 kPa, Liquid	1222.74	–
330 K, 10903 kPa, Liquid	1221.9	–
335.01 K, 948 kPa, Liquid	1170.3	–
335.01 K, 4081.7 kPa, Liquid	1184.44	–
335.01 K, 7985.8 kPa, Liquid	1199.99	–
335.01 K, 11894 kPa, Liquid	1213.83	–
335.01 K, 14112 kPa, Liquid	1221.09	–
339.43 K, 353.83 kPa, Gas	–	140.91 m/s
339.44 K, 145.11 kPa, Gas	–	148.28 m/s
339.44 K, 267.82 kPa, Gas	–	144.07 m/s
339.44 K, 267.83 kPa, Gas	–	144.07 m/s
339.44 K, 267.89 kPa, Gas	–	144.07 m/s
339.44 K, 353.63 kPa, Gas	–	140.92 m/s
339.44 K, 353.76 kPa, Gas	–	140.91 m/s
339.45 K, 144.98 kPa, Gas	–	148.29 m/s
339.45 K, 145.24 kPa, Gas	–	148.28 m/s
339.45 K, 267.8 kPa, Gas	–	144.08 m/s
339.45 K, 267.82 kPa, Gas	–	144.08 m/s
339.47 K, 199.9 kPa, Gas	–	146.45 m/s
339.47 K, 268.41 kPa, Gas	–	144.06 m/s
339.47 K, 321.82 kPa, Gas	–	142.12 m/s
339.47 K, 447.53 kPa, Gas	–	137.13 m/s
339.48 K, 199.88 kPa, Gas	–	146.45 m/s
339.48 K, 268.39 kPa, Gas	–	144.06 m/s
339.48 K, 268.43 kPa, Gas	–	144.06 m/s
339.48 K, 322.03 kPa, Gas	–	142.12 m/s
339.48 K, 374.34 kPa, Gas	–	140.12 m/s
339.48 K, 447.52 kPa, Gas	–	137.13 m/s
339.48 K, 447.57 kPa, Gas	–	137.13 m/s
339.49 K, 85.51 kPa, Gas	–	150.21 m/s
339.49 K, 85.52 kPa, Gas	–	150.22 m/s
339.49 K, 322.01 kPa, Gas	–	142.12 m/s
340 K, 3674.5 kPa, Liquid	1169.48	–
345.01 K, 6402.5 kPa, Liquid	1168.7	–
349.98 K, 366.9 kPa, Gas	17.985	–
350 K, 9119.8 kPa, Liquid	1167.95	–
355.01 K, 990.8 kPa, Liquid	1111.28	–
355.01 K, 2028.5 kPa, Liquid	1117.99	–
355.01 K, 3980.1 kPa, Liquid	1129.59	–
355.01 K, 6026.4 kPa, Liquid	1140.59	–
355.01 K, 8135 kPa, Liquid	1150.94	–
355.01 K, 9972.9 kPa, Liquid	1159.29	–
355.01 K, 11833 kPa, Liquid	1167.22	–
359.44 K, 307.1 kPa, Gas	–	148.62 m/s
359.44 K, 400.17 kPa, Gas	–	145.8 m/s
359.44 K, 400.23 kPa, Gas	–	145.8 m/s
359.44 K, 500.35 kPa, Gas	–	142.58 m/s
359.44 K, 596.92 kPa, Gas	–	139.26 m/s
359.45 K, 307.02 kPa, Gas	–	148.63 m/s
359.45 K, 307.4 kPa, Gas	–	148.62 m/s
359.45 K, 400.08 kPa, Gas	–	145.81 m/s
359.45 K, 500.35 kPa, Gas	–	142.58 m/s and 142.58 m/s
359.45 K, 596.94 kPa, Gas	–	139.26 m/s
359.45 K, 596.95 kPa, Gas	–	139.26 m/s
359.98 K, 499.3 kPa, Gas	24.386	–
360 K, 387.4 kPa, Gas	18.379	–
360 K, 916.6 kPa, Fluid (supercritical or subcritical phases)	1094.63	–
360 K, 3249 kPa, Liquid	1110.57	–
364 K, 2629 kPa, Fluid (supercritical or subcritical phases)	1094.08	–
365.01 K, 5510.3 kPa, Liquid	1109.87	–
368 K, 1297.9 kPa, Fluid (supercritical or subcritical phases)	1070.52	–
368 K, 4345.4 kPa, Fluid (supercritical or subcritical phases)	1093.56	–
370 K, 523.6 kPa, Gas	24.719	–
370.01 K, 524 kPa, Gas	24.736	–
370.01 K, 7766.7 kPa, Liquid	1109.2	–
370.02 K, 407.6 kPa, Gas	18.73	–
372 K, 2880.6 kPa, Fluid (supercritical or subcritical phases)	1070	–
375.01 K, 2017.2 kPa, Liquid	1052.12	–
375.01 K, 4033.7 kPa, Liquid	1069.29	–
375.01 K, 5918 kPa, Liquid	1083.16	–
375.01 K, 7957.7 kPa, Liquid	1096.46	–
375.01 K, 10021 kPa, Liquid	1108.53	–
376 K, 1522.5 kPa, Fluid (supercritical or subcritical phases)	1043.77	–
376 K, 4464.2 kPa, Fluid (supercritical or subcritical phases)	1069.49	–
379.77 K, 81.05 kPa, Gas	–	159.47 m/s and 159.47 m/s
379.77 K, 81.06 kPa, Gas	–	159.48 m/s
379.77 K, 201.41 kPa, Gas	–	156.72 m/s

Liquid
Details	vapor or sublimation pressure [kPa]
280.01 K	65.1
290.01 K	96.5
300 K	139
310.01 K	194.9
320.02 K	267.1
330.01 K	357.9
340.01 K	470.7
350.02 K	608.7
360.02 K	775
370.03 K	973.2

From the NIST ThermoML archive (doi:10.1021/acs.jced.5b00348)
